Measured values from patent US8865623B2, “Herbicidally active cyclic diones and derivatives thereof, processes for their preparation, compositions, and method of controlling weeds” (Syngenta Limited, priority 2009, dated 2014).

Assays:
Format in all cases: in vivo
[1] = test system: Alopecurus myosuroides (ALOMY); experiment: Pre-emergence herbicidal activity, glasshouse pot test; settings: pre-emergence, rate 250 g/ha, evaluated after 13 days
Procedure, shortened: (§1)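 Seeds sown in standard soil in pots were sprayed 1 day after sowing (pre-emergence) or after 8 days' cultivation (post-emergence) with aqueous spray from acetone/water (50:50) formulation containing 0.5% Tween 20. Plants grew at 24/16° C day/night, 14 h light, 65% humidity, watered twice daily. Damage scored after 13 days, 0–100.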

Avena fatua (AVEFA) [2] = experiment: as above; settings: pre-emergence, rate 250 g/ha, evaluated after 13 days
Procedure, shortened: as §1

[3] = test system: Echinochloa crus-galli (ECHCG); experiment: as above; settings: pre-emergence, rate 250 g/ha, evaluated after 13 days
Procedure, shortened: as §1

Lolium perenne (LOLPE) [4] = experiment: as above; settings: pre-emergence, rate 250 g/ha, evaluated after 13 days
Procedure, shortened: as §1

[5] = test system: Alopecurus myosuroides (ALOMY); experiment: Post-emergence herbicidal activity, glasshouse pot test; settings: rate 250 g/ha, evaluated after 13 days
Procedure, shortened: as §1

Avena fatua (AVEFA) [6] = experiment: as above; settings: rate 250 g/ha, evaluated after 13 days
Procedure, shortened: as §1

[7] = test system: Echinochloa crus-galli (ECHCG); experiment: as above; settings: rate 250 g/ha, evaluated after 13 days
Procedure, shortened: as §1

Lolium perenne (LOLPE) [8] = experiment: as above; settings: rate 250 g/ha, evaluated after 13 days
Procedure, shortened: as §1

Compound | ALOMY damage to plant (100=total damage to plant; 0=no damage to plant) [1] | AVEFA damage to plant (100=total damage to plant; 0=no damage to plant) (Avena fatua (AVEFA) [2]) | ECHCG damage to plant (100=total damage to plant; 0=no damage to plant) [3] | LOLPE damage to plant (100=total damage to plant; 0=no damage to plant) (Lolium perenne (LOLPE) [4]) | ALOMY damage to plant (100=total damage to plant; 0=no damage to plant) [5] | AVEFA damage to plant (100=total damage to plant; 0=no damage to plant) (Avena fatua (AVEFA) [6]) | ECHCG damage to plant (100=total damage to plant; 0=no damage to plant) [7] | LOLPE damage to plant (100=total damage to plant; 0=no damage to plant) (Lolium perenne (LOLPE) [8])
CCc1ccc(Oc2ccc(C#N)cc2F)cc1C1=C(OC(=O)OC)C(C)(C)OC(C)(C)C1=O [Example P-4] | 80 | 60 | 100 | 100 | 90 | 60 | 100 | 90
CCOC(=O)OC1=C(c2cc(Oc3ccc(C#N)cc3F)ccc2CC)C(=O)C(C)(C)OC1(C)C [Example P-5] | 100 | 70 | 100 | 100 | 80 | 70 | 100 | 80
CCCOC(=O)OC1=C(c2cc(Oc3ccc(C#N)cc3F)ccc2CC)C(=O)C(C)(C)OC1(C)C [Example P-6] | 80 | 20 | 100 | 90 | 90 | 50 | 90 | 70
